Test results: patent US20100184703A1, “USE OF PEPTIDE DERIVATIVES FOR TREATING PATHOLOGIES RESULTING FROM ISCHEMIA” (CHIESI FARMACEUTICI S.p.A., priority 2007, published 2010)

Tested on: ANF, BNP, fibronectin, β-MHC, TNFR1, TNFR2, TNFα, caspase-2 mRNA
Test: Quantitative RT-PCR of heart failure, fibrosis, hypertrophy and TNFα signaling markers after ischemia/reperfusion
Format: in vivo, rat
Conditions: IR model
Experimental: In a second series of experiments, quantitative RT-PCR was performed to evaluate the level of expression of 2 markers of heart failure, Atrial Natriuretic Factor (ANF) and Brain Natriuretic Factor (BNP) as well as a marker of myocardial fibrosis, fibronectine, and myocardial hypertrophy, βMHC. […] B. mRNA expression levels of fibronectin a marker of fibrosis development, and β-Myosin Heavy Chain (β-MHC) a marker for hypertrophy development

[1] = increase in vehicle-injected animals

With Etanercept the “mRNA expression level of TNFα” value [1] was “not by Etanercept”, the “mRNA expression level of TNFα receptor 2 (TNFR2)” value [1] was “not by Etanercept” and the “mRNA expression level of caspase-2” value [1] was “not by Etanercept”. For the same substance, the “mRNA expression level of fibronectin” value (marker of fibrosis development) was “could only prevent fibrosis development”, the “mRNA expression level of Atrial Natriuretic Factor (ANF)” value (marker of heart failure) was “significant increase” and the “mRNA expression level of brain natriuretic peptide (BNP)” value (marker of heart failure) was “significant increase”.
